According to US7671054B1, “Reverse-turn mimetics and method relating thereto” (Choongwae Pharma Corporation, priority 2001, dated 2010):
Where two headings read alike, the source gives them in different places.

Tests used:
[1] = tested on: HCT116 cells; assay: Growth inhibition assay (MTS); format: cell-based; conditions: Homo sapiens, Table 5, HCT116 cells, 48 hours treatment, MTS, read-out: Growth Inhibition (GI50, uM) HCT116
Procedure: (§1) SW480 or HCT116 cells were placed into 96 well microplate (10^4cells/well) and incubated for 24 hours at 37° C. 20 μl of [3-(4,5-dimethylthiazol-2-yl)-5-(3-carboxyphenyl)-2-(4-sulfophenyl)-2H-tetrazolium, inner salt](MTS) solution (Promega) was added into each well and the absorbance after 2 hour incubation at 37° C. (negative control) was read. And then, the cells were treated with TCF4 compound at various concentrations for 48 hours. 20 μl of MTS solution (Promega) was added into each well and incubated for 2 hour at 37° C. Cell viability was measured by reading the absorbance at 490 nm using a microplate reader (Molecular device) and cytotoxicity of a compound at each concentration was calculated.
as §1, with “a test” for “TCF4”

[2] = tested on: SW480 cells; assay: Growth inhibition assay (MTS); format: cell-based; conditions: Homo sapiens, Table 5, SW480 cells
Procedure: as §1
as §1, with “a test” for “TCF4”

[3] = SW480, 48 h, 48 hours treatment, MTS, read-out: Growth Inhibition (GI50, uM) SW480

SMILES	GI50 ([1]; HCT-116, 48 h)	GI50 [2, 3]	GI50 ([1]; HCT-116)	GI50 ([2]; the cell prints nM, read-out: Growth Inhibition (GI50) SW480)	GI50 ([2]; 48 hours treatment, MTS, read-out: Growth Inhibition (GI50, uM) SW480)
C=CCN1CC(=O)N2[C@@H](CN([C@H](C)c3cccc4cccnc34)C(=O)[C@@H]2Cc2ccc(O)cc2)N1C(=O)NCc1ccccc1 [Compound 161]	4.1 ± 0.5 µM	4.2 ± 0.4 µM			
C=CCN1CC(=O)N2[C@@H](Cc3ccc(O)cc3)C(=O)N(Cc3ccc(F)cc3F)C[C@@H]2N1C(=O)NCc1ccc(Cl)c(Cl)c1 [Compound 149]	2.3 ± 0.4 µM	2.3 ± 0.1 µM			
CCCN1CC(=O)N2[C@@H](Cc3ccc(O)cc3)C(=O)N(Cc3ccc(F)cc3F)C[C@@H]2N1C(=O)NCc1ccccc1 [Compound 127]	4.3 ± 0.7 µM	4.9 ± 0.7 µM			
C#CCN1CC(=O)N2[C@@H](Cc3ccc(O)cc3)C(=O)N(Cc3ccc(Cl)c4cccnc34)C[C@@H]2N1C(=O)NCc1ccccc1 [Compound 110]	1.9 ± 0.1 µM	2.1 ± 0.3 µM			
CN1CC(=O)N2[C@@H](Cc3ccc(O)cc3)C(=O)N(Cc3ccccc3OC(F)(F)F)C[C@@H]2N1C(=O)NCc1ccccc1 [Compound 5]	2.06 µM	2.32 µM			
CCOP(=O)(CC(=O)Nc1ccc(C[C@H]2C(=O)N(Cc3cccc4ccccc34)C[C@H]3N2C(=O)CN(C)N3C(=O)NCc2ccccc2)cc1)OCC [Compound 59]			55.1 ± 33.7 µM	> 0.05 µM	
CN1CC(=O)N2[C@@H](Cc3ccc(O)cc3)C(=O)N(Cc3ccccc3C(F)(F)F)C[C@@H]2N1C(=O)NCc1ccccc1 [Compound 10]			1.66 µM		2.34 µM
CC(C)N(C)c1cc(CN2C[C@H]3N(C(=O)CN(C)N3C(=O)NCc3ccccc3)[C@@H](Cc3ccc(O)cc3)C2=O)ccc1Cl [Compound 33]	28.6 ± 2 µM	> 50 µM			
C[C@@H](c1ccc(Cl)c2cccnc12)N1CC2N(C(=O)CN(C)N2C(=O)NCc2ccccc2)[C@@H](Cc2ccc(O)cc2)C1=O (stereo partly shown) [Compound 166]	25.2 ± 3.2 µM	27.9 ± 4.7 µM			
C=CCN1CC(=O)N2[C@@H](Cc3ccc(O)cc3)C(=O)N(Cc3ccc(OC)cc3)C[C@@H]2N1C(=O)NCc1ccc(Cl)c(Cl)c1 [Compound 185]	4.5 ± 0.2 µM	4.9 ± 0.4 µM			
CN(C)c1cc(Cl)ccc1CN1C[C@H]2N(C(=O)CN(C)N2C(=O)NCc2ccccc2)[C@@H](Cc2ccc(O)cc2)C1=O [Compound 24]	1.67 µM	13.8 µM			
C=CCN1CC(=O)N2[C@@H](Cc3ccc(O)cc3)C(=O)N(Cc3cccc(N4CCCC4)c3)C[C@@H]2N1C(=O)NCc1ccccc1 [Compound 125]	1.9 ± 0.2 µM	2.2 ± 0.3 µM			

More lines, main results first:

GI50 ([1]; HCT-116, 48 h)	GI50 [2, 3]	SMILES	GI50 ([1]; HCT-116)	GI50 ([2]; the cell prints nM, read-out: Growth Inhibition (GI50) SW480)	GI50 ([2]; 48 hours treatment, MTS, read-out: Growth Inhibition (GI50, uM) SW480)
1 ± 0.3 µM	1.3 ± 0.1 µM	C=CCN1CC(=O)N2[C@@H](Cc3ccc(O)cc3)C(=O)N(Cc3ccc(F)c(F)c3)C[C@@H]2N1C(=O)NCc1ccccc1 [Compound 148]			
1.5 ± 0.1 µM	1.6 ± 0.3 µM	C=CCN1CC(=O)N2[C@@H](Cc3ccc(O)cc3)C(=O)N(Cc3ccc(OC)cc3OC)C[C@@H]2N1C(=O)NCc1ccccc1 [Compound 183]			
1.4 ± 0.2 µM	1.3 ± 0.1 µM	C=CCN1CC(=O)N2[C@@H](Cc3ccc(O)cc3)C(=O)N(Cc3ccc(Cl)c(Cl)c3)C[C@@H]2N1C(=O)NCc1ccccc1 [Compound 150]			
1.3 ± 0.1 µM	18.8 ± 4.8 µM	CN1CC(=O)N2[C@@H](Cc3ccc(O)cc3)C(=O)N(Cc3cccc4c3cnn4Cc3ccccc3N)C[C@@H]2N1C(=O)NCc1ccccc1 [Compound 63]			
1.3 ± 0.3 µM	1.4 ± 0.4 µM	C=CCN1CC(=O)N2[C@@H](Cc3ccc(O)cc3)C(=O)N(Cc3cc(C)cc4c3N(C)CCO4)C[C@@H]2N1C(=O)NCc1ccccc1 [Compound 137]			
< 0.4 µM	< 0.4 µM	C=CCN1CC(=O)N2[C@@H](Cc3ccc(O)cc3)C(=O)N(Cc3cccc(OCCN4CCOCC4)c3)C[C@@H]2N1C(=O)NCc1ccccc1 [Compound 104]			
1.1 ± 0.1 µM	0.8 ± 0.1 µM	C=CCN1CC(=O)N2[C@@H](Cc3ccc(O)cc3)C(=O)N(Cc3ccc(Cl)c4scnc34)C[C@@H]2N1C(=O)NCc1ccccc1 [Compound 193]			
1 ± 0.2 µM	0.8 ± 0.1 µM	C=CCN1CC(=O)N2[C@@H](Cc3ccc(O)cc3)C(=O)N(Cc3cccc4cccnc34)C[C@@H]2N1C(=O)NCc1ccc(Cl)c(Cl)c1 [Compound 169]			
